From patent publication US6589977B1, “Pyrrole derivatives and cell death inhibitors” (Sagami Chemical Research Center, priority 1999, dated 2003)

Assays:
[1] = system: cerebellar granule cells; assay: Inhibition of FCCP-induced death of cerebellar granule cells; type: cell-based, rats; settings: compound 10 μM; FCCP (5 μM); after 2 hours
Method: (§1) According to a known method (A Dissection and Tissue Culture Manual of the Nervous System, p. 211, 1989, Alan R, Liss, Inc.), cerebellar granule cells were isolated from the cerebellum of 7 days old rats and cultured. Namely, after conducting isolation procedures described in the above literature, the resulting cells were resuspended in DMEM containing 10% fetal bovine serum, 25 mM KCl and 2 mM glutamine, and seeded in poly-lysine coated plates. After the cells were cultured in a CO2 incubator for 48 hours according to a conventional method, cytosine-1-β-D(+)-arabinofuranoside (Ara-C) (10 μM) was added thereto, and the cell was continued to culture. The following experiments were conducted with the cells of 7 to 14 days old from the start day of the cultivation, the cells having completed neurite extension sufficiently.
When the test compound 15 (10 μM) coexisted prior to the FCCP addition, 80% of cells were alive on an observation similarly made after 2 hours.

[2] = system: cerebellar granule cells; assay: Inhibition of bilirubin-induced death of cerebellar granule cells; type: cell-based, rats; settings: compound 10 μM added prior to bilirubin (10 μg/ml); after 23 hours
Method: as §1
Neonatal jaundice is known to induce severe brain damages by way of abnormally high concentration of bilirubin in the body. […] When the test compound 15 (10 μM) was added prior to the bilirubin addition, more than 95% of cells were alive on an observation made similarly after 23 hours.

[3] = system: cerebellar granule cells; assay: Inhibition of antimycin A-induced death of cerebellar granule cells; type: cell-based, rats; settings: compound 10 μM; antimycin A (5 μM); after 2 hours
Method: as §1
When the test compound 15 (10 μM) coexisted prior to the antimycin A addition, more than 95% of cells were alive on an observation made similarly after 2 hours.

[4] = system: cerebellar granule cells; assay: Inhibition of sodium azide-induced death of cerebellar granule cells; type: cell-based, rats; settings: compound 10 μM; sodium azide (10 mM); after 2 hours
Method: as §1, with “After the cells were cultured in a CO2 incubator for 48 hours according to a conventional method, cytosine-1-β-D(+)-arabinofuranoside (Ara-C) (10 μM) was added thereto, and the cell was continued to culture.” left out

[5] = system: Porcine ovarian granulosa cells (POGC); assay: Inhibition of SNP-induced apoptosis of porcine ovarian granulosa cells; type: cell-based; settings: SNP 0.5 mM; cells observed after 18 hours
Excerpt: Porcine ovaries were washed with PBS buffer, and Porcine ovarian granulosa cells (POGC) were collected by aspiration from follicles with a syringe. Cell fraction was recovered as a precipitate by centrifugation of the suspension. The operation of suspending the cell fraction into PBS buffer and subjecting the resulting suspension to centrifugation was repeated three times to wash the cells. The POGC obtained as a precipitate were suspended again into a culture medium (DMEM containing 10% fetal bovine serum) and cell clumps were disrupted by pipetting. The cell suspension was passed through a mesh to remove contaminating tissue fragments, and then pipetted in 24-well plates for cell culture. The cell suspension was cultured for 2 days in a CO2 incubator according to a conventional procedure (37° C., 5% CO2). Then, the medium was refreshed to remove floating cells and the cultivation was continued further 2 to 3 days until the cells reached subconfluency (0.7 to 2×10^5 cell/well). After the attaching cells were washed with serum-free medium, they were cultured in a serum-free DMEM (containing 5 μg/mL of transferrin, and 40 ng/mL of hydrocortisone, 4 mg/mL of bovine serum albumin (BSA), 100 nM androstendione) and it was possible to continue to culture cells with relatively immature differentiation. […] The cell death was also confirmed by MTT assay. Then, various concentrations of the test compounds were added to the present culture system and the cells were observed after 18 hours.

[6] = system: cerebellar granule cells; assay: Inhibition of low potassium medium-induced death of cerebellar granule cells; type: cell-based, rats; settings: compound 10 μM; low potassium medium (5 mM KCl); after 18 hours
Method: as §1
It is known that neuronal cells undergo cell death when they are cultured in a medium of low potassium (Proc. Natl. Acad. Sci. U.S.A., volume 90, p 10989, 1993). […] When the test compound 1 (10 μM), the test compound 10 (10 μM), or the test compound 15 (10 μM)coexisted, 50%, 80%, and 85% of cells were respectively alive on an observation made similarly after 18 hours.

[7] = system: cerebellar granule cells; assay: Inhibition of glutamate-induced death of cerebellar granule cells; type: cell-based, rats; settings: compound 10 μM; glutamate (1 mM); after 6 hours
Method: as §1
Medium of cerebellar granule cells cultured for 14 days as described in Test Example 3 was replaced with DMEM containing 10% of dialyzed fetal bovine serum and subjected to a further overnight culture. […] When the test compound 15 (10 μM) coexisted, more than 95% of cells were alive on an observation even after 6 hours.

[8] = system: cerebellar granule cells; assay: Inhibition of MPPI-induced death of cerebellar granule cells (Parkinson model); type: cell-based, rats; settings: compound 1 μM added prior to MPPI (200 μM); 15 DIV cells; after 18 hours
Method: as §1, with “The following experiments were conducted with the cells of 7 to 14 days old from the start day of the cultivation, the cells having completed neurite extension sufficiently.” left out
In Parkinson's disease the dopaminergic neurons in the substantia nigra and corpus striatum in the mid-brain are selectively destroyed. Because following administration of MPTP(1-methyl-4-phenyl-1,2,3,6-tetrahydropyridine) the similar selective destruction of the dopaminergic neurons and Parkinson's disease-like symptoms are observed, the administration system of MPTP is generally employed as an in vivo model of the onset of Parkinson's disease. […]

[9] = system: erythrocytes; assay: Inhibition of hydrogen peroxide-induced hemolysis of erythrocytes; type: cell-based, Human; settings: compound 10 μM added prior to hydrogen peroxide (300 μM); after 24 hours
Method: Human blood was collected and precipitated by a centrifugation (1000 rpm, 5 min) and the precipitate containing erythrocytes was washed three times with PBS and resuspended (about 5×10^8 cells/ml) with DMEM containing 10% fetal bovine serum. Cell suspensions were dispensed into a 48-well plate to become subconfluent (about 5×10^5 cells/0.5 ml/well). When hydrogen peroxide (300 μM) was added and cultivation continued for 24 hours, more than 95% of erythrocytes underwent hemolysis and become dark and ghost-like on an observation under a light microscopy.

[10] = system: Hela 3S cells; assay: Anti-cell death effect on Hela 3S cells cultured in Krebs Ringer Buffer; type: cell-based, human; settings: compound 10 μM
Method: Hela 3S cells (culture medium: DMEM containing 10% fetal bovine serum), a cell line derived from human cervical cancer, were seeded into multi 48 well plates and cultured in a CO2 incubator according to conventional procedures. Confirming the subconfluency of a cell culture, the medium was replaced with Krebs Ringer Buffer (120 mM NaCl, […], 1 mM KH2PO4, […], 20 mM HEPES, pH 7.4, 2.57 g/L glucose, 0.05 g/L Phenol Red) and washed three times with the same buffer and cultivation continued in the same buffer. […] When the test compound 1 (10 μM) or the test compound 15 (10 μM) was added in the present culture system and cultivation continued similarly, the proportion of normal cells increased 59% or 77% respectively, and the proportion of necrosis-like cells decreased (1% or 0%, respectively), indicating the anti-cell death effects.

With `Cc1ccc2[nH]cc(-c3cn(C)cc3-c3c[nH]c4ccc(C)cc34)c2c1` [Compound 15] the cells alive [1] was 80%, the cells alive [2] was “more than 95%” and the cells alive [3] was “more than 95%”. For the same molecule, the cells alive [4] was “more than 95%”, the “MEC (Minimum effective concentration for more than 95% of inhibition of cell death)” value [5] was 0.05 µM and the cells alive [6] was 85%. For the same molecule, the cells alive [7] was “more than 95%”, the cells alive [8] was “more than 95%” and the inhibition of hemolysis [9] was “almost complete inhibition of hemolysis”. For the same molecule, the “proportion of necrosis-like cells” value ([10]; after 5 hours (11% without compound)) was 0% and the “proportion of normal cells” value ([10]; after 5 hours (42% normal without compound)) was 77%.
